# From ChEMBL document CHEMBL4706756, “Combination Therapy of RNA Interference and Small Molecules for Treating Hepatitis B Virus Infection” (ACS Med Chem Lett, 2021)
# Calls of active or inactive are those of the source. The rule behind the calls is not given here.
# Tests used:
# [1] = tested on: Hepatitis B virus; experiment: Antiviral activity against HBV infected in CHB patient assessed as reduction in HBsAg level at 250 mg, po administered daily from 1 to 84 days in presence of RNAi component and NA relative to control; format: functional; parameters: scale not given: the % may be the effect or the level left; conditions: time 1-84 day
# [2] = tested on: Hepatitis B virus; experiment: Antiviral activity against HBV infected in CHB patient assessed as reduction in viral DNA level at 250 mg, po administered daily from 1 to 84 days in presence of RNAi component and NA; format: functional, organism-based; conditions: time 1-84 day
# [3] = tested on: Hepatitis B virus; experiment: Antiviral activity against HBV infected in CHB patient assessed as reduction in viral RNA level at 250 mg, po administered daily from 1 to 84 days in presence of RNAi component and NA; format: functional, organism-based; conditions: time 1-84 day
# [4] = tested on: Hepatitis B virus; experiment: Antiviral activity against HBV infected in CHB patient assessed as reduction in HBeAg level at 250 mg, po administered daily from 1 to 84 days in presence of RNAi component and NA; format: functional, organism-based; conditions: time 1-84 day
# [5] = tested on: Hepatitis B virus; experiment: Antiviral activity against HBV infected in CHB patient assessed as reduction in HBcrAg level at 250 mg, po administered daily from 1 to 84 days in presence of RNAi component and NA; format: functional, organism-based; conditions: time 1-84 day
# [6] = tested on: Hepatitis B virus; experiment: Antiviral activity against HBV infected in HBeAg-positive CHB patient assessed as reduction in HBsAg level at 250 mg, po administered daily from 1 to 84 days in presence of RNAi component and NA; format: functional, organism-based; conditions: time 1-84 day
# [7] = tested on: Hepatitis B virus; experiment: Antiviral activity against HBV infected in HBeAg-negative CHB patient assessed as reduction in HBsAg level at 250 mg, po administered daily from 1 to 84 days in presence of RNAi component and NA; format: functional, organism-based; conditions: time 1-84 day
# [8] = Toxicity in HBV infected CHB patient at 250 mg, po administered daily from 1 to 84 days in presence of RNAi component and NA; format: organism-based; conditions: human, in vivo, time 1-84 day
structure (smiles),measurement,setting,value
C[C@H](NS(=O)(=O)c1cc(C(=O)Nc2ccc(F)c(C#N)c2)n(C)c1)C(F)(F)F [BERSACAPAVIR],Activity,[1],90%
same,Activity,[2],Active
same,Activity,[3],Active
same,Activity,[4],Active
same,Activity,[5],Active
same,Activity,[6],Active
same,Activity,[7],Active
same,Activity,[8],Non-Toxic
